pIC50: −log10 of the molar value.
The compounds below were run against hKIF18A (1-374) (Homo sapiens (Human), UniProt Q8NI77) (assay: Inhibition of KIF18A microtubule-dependent ATPase activity (ADP-Glo)). Settings: not given.
Chain of hKIF18A (1-374) (Q8NI77 whole entry, looked up): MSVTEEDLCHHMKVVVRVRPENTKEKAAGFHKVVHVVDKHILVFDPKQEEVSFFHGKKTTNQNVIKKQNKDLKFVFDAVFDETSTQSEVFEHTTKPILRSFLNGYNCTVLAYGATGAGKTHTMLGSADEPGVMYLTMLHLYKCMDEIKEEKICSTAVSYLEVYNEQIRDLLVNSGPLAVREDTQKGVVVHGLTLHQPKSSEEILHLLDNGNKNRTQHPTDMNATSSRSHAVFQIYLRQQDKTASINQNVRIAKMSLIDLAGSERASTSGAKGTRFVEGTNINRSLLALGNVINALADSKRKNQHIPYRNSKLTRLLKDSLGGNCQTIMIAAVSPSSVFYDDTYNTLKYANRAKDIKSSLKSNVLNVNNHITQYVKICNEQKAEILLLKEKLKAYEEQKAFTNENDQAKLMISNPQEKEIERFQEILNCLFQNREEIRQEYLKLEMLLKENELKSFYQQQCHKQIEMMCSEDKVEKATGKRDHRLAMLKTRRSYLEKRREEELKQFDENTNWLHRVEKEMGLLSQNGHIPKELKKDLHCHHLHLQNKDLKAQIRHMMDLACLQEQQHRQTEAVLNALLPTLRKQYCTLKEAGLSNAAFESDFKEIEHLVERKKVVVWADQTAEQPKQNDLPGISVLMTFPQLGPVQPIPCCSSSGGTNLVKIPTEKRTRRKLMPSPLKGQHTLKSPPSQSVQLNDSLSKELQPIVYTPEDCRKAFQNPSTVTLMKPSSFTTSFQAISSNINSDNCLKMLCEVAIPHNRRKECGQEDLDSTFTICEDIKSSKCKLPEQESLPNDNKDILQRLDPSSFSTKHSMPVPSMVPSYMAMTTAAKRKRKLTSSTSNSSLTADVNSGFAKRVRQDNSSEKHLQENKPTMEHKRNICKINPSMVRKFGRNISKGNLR
Chain of hKIF18A (1-374) (Q2XVP4 whole entry partner, looked up): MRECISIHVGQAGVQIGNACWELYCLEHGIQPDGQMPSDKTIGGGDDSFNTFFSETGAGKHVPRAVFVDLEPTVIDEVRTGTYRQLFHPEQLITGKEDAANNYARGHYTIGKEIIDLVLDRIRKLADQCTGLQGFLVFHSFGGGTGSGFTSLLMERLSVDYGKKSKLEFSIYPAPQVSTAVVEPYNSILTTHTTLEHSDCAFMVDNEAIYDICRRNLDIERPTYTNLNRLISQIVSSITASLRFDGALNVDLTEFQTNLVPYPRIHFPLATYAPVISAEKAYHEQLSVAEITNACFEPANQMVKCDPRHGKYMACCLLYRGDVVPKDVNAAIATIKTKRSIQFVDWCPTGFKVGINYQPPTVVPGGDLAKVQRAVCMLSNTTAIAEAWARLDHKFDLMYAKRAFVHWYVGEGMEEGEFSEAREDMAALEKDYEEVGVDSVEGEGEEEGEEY
Chain of hKIF18A (1-374) (P02554 whole entry partner, looked up): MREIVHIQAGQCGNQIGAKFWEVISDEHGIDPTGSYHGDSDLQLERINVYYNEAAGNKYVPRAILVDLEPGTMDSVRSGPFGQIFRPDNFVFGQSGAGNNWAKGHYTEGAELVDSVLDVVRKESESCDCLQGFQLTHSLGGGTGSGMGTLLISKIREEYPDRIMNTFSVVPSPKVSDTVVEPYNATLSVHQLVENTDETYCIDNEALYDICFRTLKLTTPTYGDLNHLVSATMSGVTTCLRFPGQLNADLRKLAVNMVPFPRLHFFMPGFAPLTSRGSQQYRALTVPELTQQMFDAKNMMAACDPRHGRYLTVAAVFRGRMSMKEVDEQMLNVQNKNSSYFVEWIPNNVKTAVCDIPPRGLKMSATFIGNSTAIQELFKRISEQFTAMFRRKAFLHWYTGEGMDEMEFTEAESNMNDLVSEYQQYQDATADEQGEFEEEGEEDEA

| pIC50 | Compound |
| --- | --- |
| 7.00 | COC1CC(NS(=O)(=O)c2cccc(C(=O)N3CC4(CCC5(CC5)CC4)c4cc(NS(C)(=O)=O)ccc43)c2)C1 (stereo not shown) [Compound 222, N-(3-methoxycyclobutyl)-3-(5″- (methylsulfonamido)dispiro[cyclopropane-1,1′-cyclohexane-4′,3″-indoline]-1″-carbonyl)benzenesulfonamide] |

Same assay, conditions: KIF18A microtubule-dependent ATPase activity, biochemical assay

| pIC50 | Compound |
| --- | --- |
| 7.52 | CC(C)(C)[C@@H](O)c1ccc(C(=O)N2CC3(CCC4(CC4)CC3)c3cc(NS(=O)(=O)CCO)ccc32)o1 (single isomer, unassigned) [Compound 371a] |
| 7.66 | C=CCC1CC1NS(=O)(=O)c1cccc(C(=O)N2CC3(CCC4(CC4)CC3)c3cc(NS(C)(=O)=O)ccc32)c1 (stereo not shown) [Compound 235, N-(2-allylcyclopropyl)-3-(5″- (methylsulfonamido)dispiro[cyclopropane-1,1′-cyclohexane-4′,3″-indoline]-1″-carbonyl)benzenesulfonamide] |
| 7.35 | CS(=O)(=O)Nc1ccc2c(c1)C1(CCC3(CC3)CC1)CN2C(=O)c1cccc(CN2CCC(F)(F)C2)c1 [Compound 349, N-(1″-(3-((3,3-difluoropyrrolidin-1-yl)methyl)benzoyl)dispiro [cyclopropane-1,1′-cyclohexane-4′,3″-indolin]-5″- yl)methanesulfonamide] |
| 7.24 | CS(=O)(=O)Nc1ccc2c(c1)C1(CCC3(CC3)CC1)CN2C(=O)c1cccc(CN2CC(F)(F)C2)c1 [Compound 345, N-(1″-(3-((3,3-difluoroazetidin-1-yl)methyl)benzoyl)dispiro[cyclopropane-1,1′-cyclohexane-4′,3″-indolin]-5″-yl)methanesulfonamide] |
| 7.14 | COCC(C)NS(=O)(=O)c1cccc(C(=O)N2CC3(CCC4(CC4)CC3)c3cc(NS(C)(=O)=O)ccc32)c1 (stereo not shown) [Compound 200, N-(1-methoxypropan-2-yl)-3-(5″- (methylsulfonamido)dispiro[cyclopropane-1,1′-cyclohexane-4′,3″-indoline]-1″-carbonyl)benzenesulfonamide] |
| 6.82 | CC(O)c1ccc2c(c1)C1(CCC3(CC3)CC1)CN2C(=O)c1cccc(S(=O)(=O)NC(C)(C)C)c1 (stereo not shown) [Compound 332, N-(tert-butyl)-3-(5″-(1-hydroxyethyl)dispiro[cyclopropane-1,1′-cyclohexane-4′,3″-indoline]-1″-carbonyl)benzenesulfonamide] |
| 8.15 | CS(=O)(=O)Nc1ccc2c(c1)C1(CCC3(CC3)CC1)CN2C(=O)c1ccc(C(O)C2CC(F)(F)C2)o1 (stereo not shown) [Compound 369, N-(1″-(5-((3,3-difluorocyclobutyl)(hydroxy)methyl)furan-2-carbonyl)dispiro[cyclopropane-1,1′-cyclohexane-4′,3″-indolin]-5″- yl)methanesulfonamide] |
| 6.96 | CS(=O)(=O)Nc1ccc2c(c1)C1(CCC3(CC3)CC1)CN2C(=O)c1cccc([S+]([O-])C2CCCC2)c1 (stereo not shown) [Compound 270, N-(1″-(3-(cyclopentylsulfinyl)benzoyl)dispiro [cyclopropane-1,1′-cyclohexane-4′,3″- indolin]-5″-yl)methanesulfonamide] |
| 7.66 | CC(=O)NCCCS(=O)(=O)Nc1ccc2c(c1)C1(CCC3(CC3)CC1)CN2C(=O)c1cccc(S(=O)(=O)NC(C)(C)C)c1 [Compound 292, N-(3-(N-(1″-(3-(N-(tert-butyl)sulfamoyl)benzoyl)dispiro [cyclopropane-1,1′-cyclohexane-4′,3″- indolin]-5″- yl)sulfamoyl)propyl)acetamide] |
| 6.77 | CC(C)(C)NS(=O)(=O)c1cc(F)cc(C(=O)N2CC3(CCCCC3)c3cc(NS(C)(=O)=O)ccc32)c1 [Compound 95, N-(tert-butyl)-3-fluoro-5-(5′-(methylsulfonamido)spiro[cyclohexane-1,3′-indoline]-1′-carbonyl)benzenesulfonamide] |
| 7.77 | CS(=O)(=O)Nc1ccc2c(c1)C1(CCC3(CC3)CC1)CN2C(=O)c1cccc(S(=N)(=O)C2CCCC2)c1 (stereo not shown) [Compound 287, N-(1″-(3-(cyclopentanesulfonimidoyl)benzoyl)dispiro[cyclopropane-1,1′-cyclohexane-4′,3″-indolin]-5″- yl)methanesulfonamide] |
| 7.48 | CC(NS(=O)(=O)c1cccc(C(=O)N2CC3(CCC4(CC4)CC3)c3cc(NS(C)(=O)=O)ccc32)c1)C1CCC1 (stereo not shown) [Compound 184, N-(1-cyclobutylethyl)-3-(5″- (methylsulfonamido)dispiro[cyclopropane-1,1′-cyclohexane-4′,3″-indoline]-1″-carbonyl)benzenesulfonamide] |
| 7.00 | CC(C)(C)NS(=O)(=O)c1cccc(C(=O)N2C[C@]3(CC[C@@H](C(F)(F)F)CC3)c3cc(NS(C)(=O)=O)ccc32)c1 [Compound 361b] |
| 7.96 | CS(=O)(=O)Nc1ccc2c(c1)C1(CCC3(CC3)CC1)CN2C(=O)c1cccc(S(=O)(=O)NC2CCCCC2)c1 [Compound 180, N-cyclohexyl-3-(5″- (methylsulfonamido)dispiro[cyclopropane-1,1′-cyclohexane-4′,3″-indoline]-1″-carbonyl)benzenesulfonamide] |
| 6.89 | CS(=O)(=O)Nc1ccc2c(c1)C1(CCCCC1)CN2C(=O)c1cccc(S(=N)(=O)C2CCCC2)c1 (stereo not shown) [Compound 49, N-(1′-(3-(cyclopentanesulfonamidoyl)benzoyl)spiro[cyclohexane-1,3′-indolin]-5′-yl)methanesulfonamide] |
| 6.72 | CS(=O)(=O)Nc1ccc2c(c1)C1(CCCCC1)CN2C(=O)c1cccc(SC2CCCC2)c1 [Compound 146, N-(1′-(3-(cyclopentylthio)benzoyl)spiro[cyclohexane-1,3′-indolin]-5′-yl)methanesulfonamide] |
| 6.33 | CC1CN(S(=O)(=O)c2cccc(C(=O)N3CC4(CCCCC4)c4cc(NS(C)(=O)=O)ccc43)c2)CCO1 (stereo not shown) [Compound 107, N-(1′-(3-((2-methylmorpholino)sulfonyl)benzoyl)spiro[cyclohexane-1,3′-indolin]-5′-yl)methanesulfonamide] |
| 7.74 | CS(=O)(=O)Nc1ccc2c(c1)C1(CCC3(CC3)CC1)CN2C(=O)c1csc(S(=O)(=O)N2CC3(CCO3)C2)c1 [Compound 283, N-(1″-(5-((1-oxa-6-azaspiro[3.3]heptan-6-yl)sulfonyl)thiophene-3-carbonyl)dispiro[cyclopropane-1,1′-cyclohexane-4′,3″-indolin]-5″- yl)methanesulfonamide] |
| 7.89 | CC1(NS(=O)(=O)c2cccc(C(=O)N3CC4(CCC5(CC5)CC4)c4cc(NS(C)(=O)=O)ccc43)c2)CSC1 [Compound 226, 3-(5″- (methylsulfonamido)dispiro[cyclopropane-1,1′-cyclohexane-4′,3″-indoline]-1″-carbonyl)-N-(3-methylthietan-3-yl)benzenesulfonamide] |
| 7.74 | CCS(=O)(=O)Nc1ccc2c(c1)C1(CCC3(CC3)CC1)CN2C(=O)c1ccc(F)c(S(=O)(=O)NC(C)(C)C)c1 [Compound 340, N-(tert-butyl)-5-(5″- (ethylsulfonamido)dispiro[cyclopropane-1,1′-cyclohexane-4′,3″-indoline]-1″- carbonyl)-2-fluorobenzenesulfonamide] |
| 8.25 | CS(=O)(=O)Nc1ccc2c(c1)C1(CCC3(CC3)CC1)CN2C(=O)c1cccc(S(=O)(=O)NC2CCCC2)c1 [Compound 176, N-cyclopentyl-3-(5″- (methylsulfonamido)dispiro[cyclopropane-1,1″-cyclohexane-4′,3″-indoline]-1″-carbonyl)benzenesulfonamide] |
| 8.41 | CCS(=O)(=O)Nc1ccc2c(c1)C1(CCC3(CC3)CC1)CN2C(=O)c1ccc(C(O)C2CCCC2)o1 (single isomer, unassigned) [Compound 367a] |
| 7.12 | CC1(C)OCC1NS(=O)(=O)c1cccc(C(=O)N2CC3(CCC4(CC4)CC3)c3cc(NS(C)(=O)=O)ccc32)c1 (stereo not shown) [Compound 188, N-(2,2-dimethyloxetan-3-yl)-3-(5″- (methylsulfonamido)dispiro[cyclopropane-1,1′-cyclohexane-4′,3″-indoline]-1″-carbonyl)benzenesulfonamide] |
| 8.03 | CC1(NS(=O)(=O)c2cccc(C(=O)N3CC4(CCC5(CC5)CC4)c4cc(NS(C)(=O)=O)ccc43)c2)CC1 [Compound 216, N-(1-methylcyclopropyl)-3-(5″- (methylsulfonamido)dispiro[cyclopropane-1,1′-cyclohexane-4′,3″-indoline]-1″-carbonyl)benzenesulfonamide] |
| 7.51 | COCCS(=O)(=O)Nc1ccc2c(c1)C1(CCC3(CC3)CC1)CN2C(=O)c1cccc(S(=O)(=O)NC(C)(C)C)c1 [Compound 300, N-(tert-butyl)-3-(5″-((2-methoxyethyl)sulfonamido)dispiro [cyclopropane-1,1′-cyclohexane-4′,3″- indoline]-1″- carbonyl)benzenesulfonamide] |
| 8.24 | CS(=O)(=O)Nc1ccc2c(c1)C1(CCC3(CC3)CC1)CN2C(=O)c1csc(S(=O)(=O)NC2CCC2)c1 [Compound 291, N-cyclobutyl-4-(5″- (methylsulfonamido)dispiro[cyclopropane-1,1′-cyclohexane-4′,3″-indoline]-1″-carbonyl)thiophene-2-sulfonamide] |
| 7.82 | CCC(C)NS(=O)(=O)c1cccc(C(=O)N2CC3(CCC4(CC4)CC3)c3cc(NS(C)(=O)=O)ccc32)c1 (stereo not shown) [Compound 170, N-(sec-butyl)-3-(5″- (methylsulfonamido)dispiro[cyclopropane-1,1′-cyclohexane-4′,3″-indoline]-1″-carbonyl)benzenesulfonamide] |
| 7.68 | C=C1CCC2(CC1)CN(C(=O)c1cccc(S(=O)(=O)NC(C)(C)C)c1)c1ccc(NS(C)(=O)=O)cc12 [Compound 324, N-(tert-butyl)-3-(4-methylene-5′-(methylsulfonamido)spiro[cyclohexane-1,3′-indoline]-1′-carbonyl)benzenesulfonamide] |
| 7.46 | CP(=O)(CC1CCC1)c1cccc(C(=O)N2CC3(CCC4(CC4)CC3)c3cc(NS(C)(=O)=O)ccc32)c1 (stereo not shown) [Compound 362] |

| Compound | pIC50 |
| --- | --- |
| N-(1-hydroxy-2-methylpropan-2-yl)-3- (5″- (methylsulfonamido)dispiro[cyclopropane- 1,1′-cyclohexane-4′,3″-indoline]- 1″-carbonyl)benzenesulfonamide [Compound 194] | 7.30 |

Reference: US12084420B2, “Indoline compounds for inhibiting KIF18A” (Volastra Therapeutics, Inc., priority 2021, dated 2024)
